Data from ChEMBL document CHEMBL1201862, “PubChem BioAssay data set” (2004).
One block for each compound: values may come before it. Calls of active or inactive are those of the source.

Tests used:
[1] = molecular target: T1, Mannose-6-phosphate isomerase (Homo sapiens, UniProt P34949); test: human PMI inhibitors, high substrate, primary screen, biochemical, fluorescence intensity, high mannose 6-phosphate (AID 1220)
T1 sequence (P34949 whole entry): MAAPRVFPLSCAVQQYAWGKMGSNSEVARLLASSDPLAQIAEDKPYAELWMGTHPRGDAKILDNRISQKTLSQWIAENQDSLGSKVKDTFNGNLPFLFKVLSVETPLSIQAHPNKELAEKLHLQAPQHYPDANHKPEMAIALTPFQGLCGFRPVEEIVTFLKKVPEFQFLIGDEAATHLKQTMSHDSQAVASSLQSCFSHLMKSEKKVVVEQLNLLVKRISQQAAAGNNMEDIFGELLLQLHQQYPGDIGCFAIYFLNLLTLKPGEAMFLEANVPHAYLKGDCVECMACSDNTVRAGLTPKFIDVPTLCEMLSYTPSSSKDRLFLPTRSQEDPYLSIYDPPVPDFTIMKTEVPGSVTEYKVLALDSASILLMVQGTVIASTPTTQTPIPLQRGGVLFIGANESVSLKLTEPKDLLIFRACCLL

[2] = molecular target: T2, DNA repair protein RAD52 homolog (Homo sapiens, UniProt P43351); assay type: functional, biochemical
T2 sequence (P43351 whole entry): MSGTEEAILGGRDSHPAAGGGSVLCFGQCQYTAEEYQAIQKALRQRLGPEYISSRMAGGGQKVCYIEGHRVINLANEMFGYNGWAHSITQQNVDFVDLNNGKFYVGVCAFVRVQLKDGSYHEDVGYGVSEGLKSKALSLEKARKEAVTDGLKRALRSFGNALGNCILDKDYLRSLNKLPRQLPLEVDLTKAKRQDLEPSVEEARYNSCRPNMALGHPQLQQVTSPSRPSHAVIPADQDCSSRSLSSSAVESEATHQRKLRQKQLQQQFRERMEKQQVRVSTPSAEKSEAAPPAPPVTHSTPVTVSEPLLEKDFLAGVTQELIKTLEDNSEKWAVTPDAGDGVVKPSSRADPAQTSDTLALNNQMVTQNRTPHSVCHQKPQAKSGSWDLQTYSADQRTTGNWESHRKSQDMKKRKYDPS

[3] = cytotoxicity in HEK-293T cells, dose response, cytotoxicity control for TCR NF-kB inhibitor project, luminescence, T-cell screen hits (AID 489026); assay type: functional, cell-based;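 note: cells exposed to compound about 14 hours before the viability readout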
[4] = molecular target: T3, High affinity choline transporter 1 (Homo sapiens, UniProt Q9GZV3); test: CHT inhibitors, dose response, cell-based, 5-point CRC, membrane potential dye (AID 504840); assay type: functional
T3 sequence (Q9GZV3 whole entry): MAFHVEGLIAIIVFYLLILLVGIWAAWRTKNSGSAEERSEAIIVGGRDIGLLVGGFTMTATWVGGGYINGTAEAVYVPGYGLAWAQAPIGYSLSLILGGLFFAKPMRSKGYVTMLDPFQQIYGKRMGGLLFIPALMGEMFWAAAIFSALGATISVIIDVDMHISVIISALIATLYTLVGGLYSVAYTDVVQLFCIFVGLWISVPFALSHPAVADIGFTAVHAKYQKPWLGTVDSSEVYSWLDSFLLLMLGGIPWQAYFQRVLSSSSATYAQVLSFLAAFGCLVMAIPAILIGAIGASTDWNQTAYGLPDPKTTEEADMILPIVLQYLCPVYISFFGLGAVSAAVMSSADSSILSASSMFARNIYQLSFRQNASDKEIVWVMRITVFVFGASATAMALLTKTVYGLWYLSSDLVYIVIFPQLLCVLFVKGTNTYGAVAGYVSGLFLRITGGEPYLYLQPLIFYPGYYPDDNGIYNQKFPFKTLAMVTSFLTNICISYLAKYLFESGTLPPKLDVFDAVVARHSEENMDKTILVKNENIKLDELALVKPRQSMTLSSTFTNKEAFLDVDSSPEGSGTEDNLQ

[5] = inhibitors of intracellular T. cruzi replication, confirmation, NIH3T3 host cells, beta-gal luminescence (AID 2044); assay type: functional, cell-based;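 note: intracellular parasites grown in NIH/3T3 mouse fibroblasts as host cells; luminescent beta-galactosidase reporter signal from transgenic T. cruzi replicating inside host cells; inhibitors lower the luminescence signal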
[6] = cytotoxicity toward NIH3T3 fibroblasts, dose response, counter-screen, cell-based, ATP luminescence, mouse fibroblasts (AID 2010); assay type: functional;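 note: cells exposed to compound for about 90 hours before reading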
[7] = molecular target: T4, Corticotropin-releasing factor receptor 2/Corticotropin-releasing factor-binding protein (Homo sapiens, UniProt P24387+Q13324); test: Dose Response confirmation of uHTS hits for small molecule antagonists of the CRF-binding protein and CRF-R2 receptor complex.; assay type: functional; conditions: read-out: IC50_Mean
T4 sequence (Q13324 whole entry): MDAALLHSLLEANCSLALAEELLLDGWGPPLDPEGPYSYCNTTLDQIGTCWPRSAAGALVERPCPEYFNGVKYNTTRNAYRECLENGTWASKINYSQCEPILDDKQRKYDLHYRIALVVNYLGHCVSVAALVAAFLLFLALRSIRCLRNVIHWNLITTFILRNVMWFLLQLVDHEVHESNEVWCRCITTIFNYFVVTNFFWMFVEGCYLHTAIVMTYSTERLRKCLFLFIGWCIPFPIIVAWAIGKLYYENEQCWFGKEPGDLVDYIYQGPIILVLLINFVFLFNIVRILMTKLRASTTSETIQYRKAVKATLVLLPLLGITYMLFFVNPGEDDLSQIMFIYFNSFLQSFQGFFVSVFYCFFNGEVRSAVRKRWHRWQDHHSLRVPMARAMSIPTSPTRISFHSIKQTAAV
T4 sequence (P24387 whole entry): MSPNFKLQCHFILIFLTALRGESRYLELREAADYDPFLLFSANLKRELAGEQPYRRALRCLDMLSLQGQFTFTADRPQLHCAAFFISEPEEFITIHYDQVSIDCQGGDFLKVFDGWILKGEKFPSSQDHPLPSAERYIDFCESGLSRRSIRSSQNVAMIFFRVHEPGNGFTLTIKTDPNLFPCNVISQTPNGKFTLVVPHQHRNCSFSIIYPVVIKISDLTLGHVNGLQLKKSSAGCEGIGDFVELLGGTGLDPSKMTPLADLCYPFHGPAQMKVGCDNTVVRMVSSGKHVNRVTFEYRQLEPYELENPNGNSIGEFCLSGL

[8] = molecular target: T4, Corticotropin-releasing factor receptor 2/Corticotropin-releasing factor-binding protein; test: activators of CRF receptor 2 with binding protein – uHTS hits, confirmation (AID 602473); assay type: functional; conditions: read-out: EC50_Mean
[9] = CRF-BP/CRF-R2 complex antagonists, dose response, cell-based, uHTS hits, 384-well (AID 651639); assay type: functional, Homo sapiens; conditions: read-out: IC50_Mean
[10] = molecular target: Eukaryotic translation initiation factor 4E (Mus musculus, UniProt P63073); test: eIF4E–eIF4G protein interaction inhibitors, dose response, biochemical, TR-FRET (AID 855); assay type: functional;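 note: potency for disrupting eIF4E binding to eIF4GI seen as loss of FRET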
[11] = molecular target: DNA dC->dU-editing enzyme APOBEC-3G (Homo sapiens, UniProt Q9HC16); test: Dose Response confirmation of small molecule APOBEC3G DNA Deaminase Inhibitors via a fluorescence-based single-stranded DNA deaminase assay. [Related pubchem assays (depositor defined):AID493012, AID493028]; assay type: functional
[12] = molecular target: Peroxisome proliferator-activated receptor gamma/Nuclear receptor coactivator 1 (Homo sapiens, UniProt P37231); test: (§1) TR-FRET dose response biochemical High Throughput Screening assay for agonists of the steroid receptor coactivator 1 (SRC-1) recruitment by the peroxisome proliferator-activated receptor gamma (PPAR gamma): non-selective agonists. [Related pubchem assays (depositor defined):AID1300, AID1808, AID504735, AID631]; assay type: protein assay
[13] = molecular target: Peroxisome proliferator-activated receptor gamma/Nuclear receptor coactivator 3 (Homo sapiens, UniProt P37231); test: as §1, with “3 (SRC-3)” for “1 (SRC-1)”, “assays: 1301 (Confirmation screen.), 1048 (Primary screen.)]” for “assays (depositor defined):AID1300, AID1808, AID504735, AID631]”; assay type: functional
[14] = molecular target: Peroxisome proliferator-activated receptor gamma/Nuclear receptor coactivator 2 (Homo sapiens, UniProt P37231); test: TR-FRET dose response biochemical High Throughput Screening assay for agonists of the steroid receptor coactivator 2 (SRC-2) recruitment by the peroxisome proliferator-activated receptor gamma (PPAR gamma): non-selective agonists. [Related pubchem assays: 1297, 1032 ]; assay type: functional
[15] = molecular target: G-protein coupled receptor 55 (Homo sapiens, UniProt Q9Y2T6); test: GPR55 agonists via beta-arrestin recruitment, primary screen, imaging, U2OS cells, beta-arrestin-GFP redistribution (AID 1961); assay type: functional
[16] = HEp-2 cell cytotoxicity, dose response, cytotoxicity control for RSV inhibitor project, HTS (AID 2410); assay type: functional; conditions: human respiratory syncytial virus
Prothrombin = Prothrombin (Homo sapiens, UniProt P00734); test: Thrombin 1536 HTS Dose Response Confirmation. [Related pubchem assays: 1046 (Thrombin 1536 HTS; hits were confirmed in this assay)]; assay type: functional
Cytochrome P450 2D6 = Cytochrome P450 2D6 (Homo sapiens, UniProt P10635);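 note: CYP2D6 member of a cytochrome P450 panel assay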
[17] = inhibitors of HIV Env-driven cell fusion, dose response, cherry-pick (AID 652057); assay type: functional, cell-based
[18] = ZM109 Env clade C HIV-1 fusion inhibitors, dose response, HeLa effector, CEM target cells, luciferase, cherry-pick (AID 652058); assay type: functional, cell-based
[19] = off-target signal loss in HeLa-CEM21 co-culture – HeLa F-luc CTL cells, cherry-picked, counter-screen for HIV-1 Env fusion inhibitor project, dose response (AID 652040); assay type: functional, cell-based;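 note: potency for signal decrease marking cytotoxic or nonspecific inhibition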
[20] = inhibitors of clade B AD8 Env fusion, dose response, cell-based, cherry-pick (AID 652062); assay type: functional;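 note: luciferase signal from cell-cell fusion driven by HIV-1 clade B AD8 Env; potency is for inhibitors of fusion seen as a drop in luminescence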

Sequence of Peroxisome proliferator-activated receptor gamma/Nuclear receptor coactivator 3 (P37231 whole entry): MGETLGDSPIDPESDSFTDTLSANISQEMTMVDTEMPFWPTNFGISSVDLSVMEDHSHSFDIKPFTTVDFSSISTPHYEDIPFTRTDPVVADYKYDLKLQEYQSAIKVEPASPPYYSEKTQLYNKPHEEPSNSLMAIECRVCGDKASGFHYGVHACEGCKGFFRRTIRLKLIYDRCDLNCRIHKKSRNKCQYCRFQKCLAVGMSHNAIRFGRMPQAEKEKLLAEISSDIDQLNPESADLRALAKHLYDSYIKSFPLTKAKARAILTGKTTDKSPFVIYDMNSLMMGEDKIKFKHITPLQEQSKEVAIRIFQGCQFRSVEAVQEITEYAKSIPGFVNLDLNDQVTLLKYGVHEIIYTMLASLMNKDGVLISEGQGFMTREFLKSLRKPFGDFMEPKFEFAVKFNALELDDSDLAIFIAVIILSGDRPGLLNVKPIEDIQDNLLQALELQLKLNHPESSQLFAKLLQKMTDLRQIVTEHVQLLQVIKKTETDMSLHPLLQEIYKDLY
Sequence of Peroxisome proliferator-activated receptor gamma/Nuclear receptor coactivator 3 (Q9Y6Q9 whole entry, further chain): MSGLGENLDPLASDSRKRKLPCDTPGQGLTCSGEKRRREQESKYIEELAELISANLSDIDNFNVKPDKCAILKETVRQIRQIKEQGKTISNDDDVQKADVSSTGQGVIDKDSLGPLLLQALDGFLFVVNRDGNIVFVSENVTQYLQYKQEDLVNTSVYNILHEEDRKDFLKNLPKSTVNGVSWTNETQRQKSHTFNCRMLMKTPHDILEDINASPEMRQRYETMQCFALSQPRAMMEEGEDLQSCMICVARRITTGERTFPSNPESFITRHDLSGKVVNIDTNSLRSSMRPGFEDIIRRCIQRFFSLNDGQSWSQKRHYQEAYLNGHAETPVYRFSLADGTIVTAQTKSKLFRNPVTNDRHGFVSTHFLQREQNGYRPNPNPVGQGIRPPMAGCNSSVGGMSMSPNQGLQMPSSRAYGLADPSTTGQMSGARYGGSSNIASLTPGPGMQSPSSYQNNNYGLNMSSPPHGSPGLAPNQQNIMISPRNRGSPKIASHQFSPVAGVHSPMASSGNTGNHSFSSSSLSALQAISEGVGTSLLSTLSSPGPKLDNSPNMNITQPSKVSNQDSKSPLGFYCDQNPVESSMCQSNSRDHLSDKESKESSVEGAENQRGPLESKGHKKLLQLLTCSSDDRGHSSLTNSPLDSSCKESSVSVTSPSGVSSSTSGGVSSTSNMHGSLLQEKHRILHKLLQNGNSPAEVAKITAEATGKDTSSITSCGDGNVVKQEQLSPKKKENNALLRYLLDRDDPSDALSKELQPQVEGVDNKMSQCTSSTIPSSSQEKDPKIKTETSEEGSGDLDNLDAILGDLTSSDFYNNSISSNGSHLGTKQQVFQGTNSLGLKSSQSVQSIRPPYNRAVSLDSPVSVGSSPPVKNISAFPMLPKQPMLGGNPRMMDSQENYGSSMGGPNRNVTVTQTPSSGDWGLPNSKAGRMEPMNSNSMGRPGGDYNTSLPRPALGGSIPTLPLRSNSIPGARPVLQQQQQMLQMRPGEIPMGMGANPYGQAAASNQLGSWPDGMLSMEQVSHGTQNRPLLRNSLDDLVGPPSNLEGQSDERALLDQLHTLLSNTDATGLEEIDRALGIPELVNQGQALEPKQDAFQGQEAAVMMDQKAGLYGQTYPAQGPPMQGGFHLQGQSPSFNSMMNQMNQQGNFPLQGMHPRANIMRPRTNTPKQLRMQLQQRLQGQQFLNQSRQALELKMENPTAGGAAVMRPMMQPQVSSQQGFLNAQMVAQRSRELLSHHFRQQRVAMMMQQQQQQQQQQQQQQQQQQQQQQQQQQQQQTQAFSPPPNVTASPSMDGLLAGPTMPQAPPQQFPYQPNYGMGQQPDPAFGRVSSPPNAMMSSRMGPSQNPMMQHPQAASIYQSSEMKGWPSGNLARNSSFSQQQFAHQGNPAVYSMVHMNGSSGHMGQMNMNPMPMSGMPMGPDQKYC
Sequence of Peroxisome proliferator-activated receptor gamma/Nuclear receptor coactivator 2 (P37231 whole entry): as the sequence (P37231 whole entry) above
Sequence of Peroxisome proliferator-activated receptor gamma/Nuclear receptor coactivator 2 (Q15596 whole entry, further chain): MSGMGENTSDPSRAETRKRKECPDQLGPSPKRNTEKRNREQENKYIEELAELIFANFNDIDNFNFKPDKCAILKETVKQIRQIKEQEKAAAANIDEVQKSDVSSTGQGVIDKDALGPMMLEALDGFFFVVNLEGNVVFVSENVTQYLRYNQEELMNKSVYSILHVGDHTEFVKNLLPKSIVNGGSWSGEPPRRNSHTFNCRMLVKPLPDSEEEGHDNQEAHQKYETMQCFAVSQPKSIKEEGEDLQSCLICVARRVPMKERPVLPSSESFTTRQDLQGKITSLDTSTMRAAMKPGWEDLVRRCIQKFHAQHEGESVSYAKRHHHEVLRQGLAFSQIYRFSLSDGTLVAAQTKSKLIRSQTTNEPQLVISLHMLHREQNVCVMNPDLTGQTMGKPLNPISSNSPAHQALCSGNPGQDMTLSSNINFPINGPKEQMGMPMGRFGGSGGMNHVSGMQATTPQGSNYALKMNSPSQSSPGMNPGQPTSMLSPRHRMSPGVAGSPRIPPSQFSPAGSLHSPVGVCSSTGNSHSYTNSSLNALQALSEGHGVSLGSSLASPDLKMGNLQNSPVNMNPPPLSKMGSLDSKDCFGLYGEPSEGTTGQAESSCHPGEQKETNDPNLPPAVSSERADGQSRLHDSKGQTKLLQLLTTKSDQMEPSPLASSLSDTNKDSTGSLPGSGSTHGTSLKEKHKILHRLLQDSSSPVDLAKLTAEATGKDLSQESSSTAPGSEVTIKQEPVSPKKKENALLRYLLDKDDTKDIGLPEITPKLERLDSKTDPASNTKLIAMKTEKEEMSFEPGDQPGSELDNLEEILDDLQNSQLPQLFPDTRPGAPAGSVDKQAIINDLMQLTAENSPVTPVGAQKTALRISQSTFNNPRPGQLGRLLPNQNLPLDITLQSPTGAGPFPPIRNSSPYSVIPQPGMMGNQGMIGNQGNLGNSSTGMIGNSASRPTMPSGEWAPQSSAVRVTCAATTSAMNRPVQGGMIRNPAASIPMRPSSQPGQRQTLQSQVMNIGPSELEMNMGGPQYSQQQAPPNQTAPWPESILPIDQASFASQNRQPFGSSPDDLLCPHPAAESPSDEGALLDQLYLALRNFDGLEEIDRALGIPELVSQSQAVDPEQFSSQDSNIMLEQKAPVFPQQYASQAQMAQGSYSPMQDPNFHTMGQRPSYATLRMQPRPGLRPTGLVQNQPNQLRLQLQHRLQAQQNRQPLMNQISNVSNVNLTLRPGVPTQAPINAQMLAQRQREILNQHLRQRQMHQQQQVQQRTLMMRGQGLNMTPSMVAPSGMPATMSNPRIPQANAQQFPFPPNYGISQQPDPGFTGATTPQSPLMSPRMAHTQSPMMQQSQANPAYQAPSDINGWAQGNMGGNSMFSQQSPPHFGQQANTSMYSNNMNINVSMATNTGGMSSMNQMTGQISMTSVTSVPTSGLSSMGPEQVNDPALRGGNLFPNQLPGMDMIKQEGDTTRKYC
Sequence of DNA dC->dU-editing enzyme APOBEC-3G (Q9HC16 whole entry): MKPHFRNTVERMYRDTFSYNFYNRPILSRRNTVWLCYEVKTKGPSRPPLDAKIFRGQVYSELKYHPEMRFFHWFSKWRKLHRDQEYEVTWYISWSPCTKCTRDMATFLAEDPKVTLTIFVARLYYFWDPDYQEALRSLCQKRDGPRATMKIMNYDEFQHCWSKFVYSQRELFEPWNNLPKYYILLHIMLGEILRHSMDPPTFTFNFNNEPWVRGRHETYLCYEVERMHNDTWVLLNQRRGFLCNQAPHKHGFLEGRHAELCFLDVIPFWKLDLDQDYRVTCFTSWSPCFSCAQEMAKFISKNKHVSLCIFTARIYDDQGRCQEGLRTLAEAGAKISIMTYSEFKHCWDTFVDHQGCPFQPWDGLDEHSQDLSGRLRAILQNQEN
Sequence of Eukaryotic translation initiation factor 4E (P63073 whole entry): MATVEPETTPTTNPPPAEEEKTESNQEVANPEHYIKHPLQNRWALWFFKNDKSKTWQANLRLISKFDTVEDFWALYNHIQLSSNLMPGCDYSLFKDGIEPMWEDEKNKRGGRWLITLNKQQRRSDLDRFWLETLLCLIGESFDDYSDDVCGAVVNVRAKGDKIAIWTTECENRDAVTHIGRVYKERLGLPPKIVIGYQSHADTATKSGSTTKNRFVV
Sequence of Cytochrome P450 2D6 (P10635 whole entry, the tested form may be a part): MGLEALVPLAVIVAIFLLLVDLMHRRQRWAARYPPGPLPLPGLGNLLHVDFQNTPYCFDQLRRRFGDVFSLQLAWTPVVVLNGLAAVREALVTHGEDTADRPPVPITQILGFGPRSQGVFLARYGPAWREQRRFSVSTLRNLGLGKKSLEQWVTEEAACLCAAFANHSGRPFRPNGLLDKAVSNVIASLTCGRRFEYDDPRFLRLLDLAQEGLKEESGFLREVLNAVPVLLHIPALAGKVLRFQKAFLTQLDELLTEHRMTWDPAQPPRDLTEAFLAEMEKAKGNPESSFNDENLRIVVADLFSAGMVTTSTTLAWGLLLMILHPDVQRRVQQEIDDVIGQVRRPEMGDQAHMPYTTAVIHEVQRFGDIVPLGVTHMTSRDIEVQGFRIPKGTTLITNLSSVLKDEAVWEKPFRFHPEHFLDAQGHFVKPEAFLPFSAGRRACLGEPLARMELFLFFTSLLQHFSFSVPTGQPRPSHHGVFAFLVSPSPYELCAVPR

IC50 [1]: 24.5 µM (active)
Compound: CCN(CC)C(=S)SC1=CCS(=O)(=O)C1

IC50 [4]: 17.4 µM (active)
Compound: CSc1ccc(S(=O)(=O)N2CCC(C(=O)N3CCc4ccccc4C3)CC2)cc1

IC50 [4]: 13.2 µM (active)
EC50 [8]: 15.6 µM (active)
Compound: COc1ccc2c(c1)OC(O)(C(F)(F)C(F)F)CC2=O (centres undefined)

IC50 [10]: > 64 µM (inactive)
Compound: COC(=O)c1ccccc1NC(=O)COC(=O)c1ccc(C)c(NC(=O)c2ccco2)c1

IC50 [7]: 39 µM (active)
EC50 [8]: > 53 µM (inactive)
IC50 [9]: 10.6 µM (active)
Compound: COCCNc1nc2c(S(=O)(=O)c3cc(C)ccc3C)nnn2c2ccccc12

EC50 [12]: > 79.4 µM (inactive)
EC50 [13]: > 79.4 µM (not active)
EC50 [14]: > 79.4 µM (not active)
Compound: CCOC(=O)C1CCN(C(=O)CSc2cc(=O)n(CC)c3ccccc23)CC1

EC50 [15]: 0.523 µM (active)
Compound: CCOC(=O)c1sc2cc([N+](=O)[O-])cc(SCC(C)C)c2c1N

IC50 [7]: 6.89 µM (active)
EC50 [8]: > 53 µM (inactive)
IC50 [9]: > 20 µM (inactive)
Compound: COc1ccc(/C=C/C(=O)NCc2cn(C)nc2C)cc1COc1ccc(Cl)cc1Br

IC50 [1]: > 50 µM (not active)
Compound: N#Cc1c2ccc(OCC(N)=O)cc2n2ccccc12

IC50 (Prothrombin): > 50 µM (not active)
IC50 [4]: 14.5 µM (active)
AC50 (Cytochrome P450 2D6): 20 µM (inconclusive)
Compound: CCOC(=O)c1ccccc1Oc1c(F)c(F)nc(NCCO)c1F

AC50 [2]: 13.2 µM (active)
Compound: N=C(N)Nc1ccc(/C=C2\C=Cc3ccccc32)cc1

IC50 [7]: 13.9 µM (active)
EC50 [8]: > 53 µM (inactive)
IC50 [9]: 8.13 µM (active)
Compound: CC1=C(c2ccccc2)C(O)(c2ccccc2)C(C)C1=O (centres undefined)

More lines, now with the values behind:

Compound: Cc1ccc2nc(NC(=N)N)nc(C)c2c1
AC50 [2]: 12.6 µM (active)

Compound: CCOC(=O)c1[nH]c(C)c(C(=O)Nc2ccccc2C)c1C
IC50 [3]: > 80 µM (inactive)

Compound: O=C(Nc1nc2ccc(S(=O)(=O)N3CCCC3)cc2s1)c1ccccn1
EC50 [5]: 2.15 µM (active)
EC50 [6]: 5.13 µM (active)
IC50 [7]: 28.6 µM (active)
EC50 [8]: > 53 µM (inactive)
IC50 [9]: > 20 µM (inactive)

Compound: CCN(CC)S(=O)(=O)c1cc(F)ccc1OC
IC50 [10]: > 64 µM (inactive)

Compound: CCc1ccc(-n2c(C)nnc2S)cc1
IC50 [11]: 14.6 µM (active)

Compound: CCn1c(SCc2c(Cl)cccc2Cl)nnc1-c1nn(-c2ccccc2)ccc1=O
CC50 [16]: 49.8 µM (active)
IC50 (cells): 33.7 µM (active)

Compound: CC(=O)Oc1cc(OC(C)=O)c2c(C)cc(=O)oc2c1
IC50 (cells): 25.3 µM (active)

Compound: CC(C)(C)C1=Nn2c(nnc2-c2n[nH]c3c2CCC3)SC1
IC50 [1]: > 50 µM (not active)
IC50 [11]: 23.3 µM (active)

Compound: COc1cc(C(C(=O)NC2CCCCC2)N(C(=O)c2snc(C(N)=O)c2N)c2ccc(C)cc2)ccc1O (centres undefined)
CC50 [16]: > 50 µM (active)
IC50 (cells): 47 µM (active)

Compound: O=C(O)Cc1sc(-c2ccccc2)nc1-c1cccs1
EC50 [12]: 94.8 µM (inactive)
EC50 [13]: > 79.4 µM (not active)
EC50 [14]: 26 µM (not active)

Compound: CN(CC(=O)NCCc1ccc(S(N)(=O)=O)cc1)CC(=O)Nc1ccc(Cl)c(C(F)(F)F)c1
AC50 [17]: 5.63 µM (active)
AC50 [18]: 2.95 µM (active)
AC50 [19]: 7.96 µM (active)
AC50 [20]: 11.9 µM (active)

Compound: COc1ccc(OC(=O)N(C)C[C@@H]2OCc3ccccc3-c3c(n(C)c4ccccc34)C(=O)N([C@H](C)CO)C[C@@H]2C)cc1
AC50 [17]: 1.62 µM (active)
AC50 [18]: 1.44 µM (active)
AC50 [19]: 2.43 µM (active)
AC50 [20]: 3.25 µM (active)

Compound: COc1ccc(S(=O)(=O)Nc2ccc3c(c2)CC(=O)N([C@@H](C)CO)C[C@H](C)[C@H](CN(C)S(=O)(=O)c2ccccc2)O3)cc1
AC50 [17]: 2.12 µM (active)
AC50 [18]: 1.82 µM (active)
AC50 [20]: 11.6 µM (active)

Compound: COc1ccc(C2=Nn3c(nnc3-c3ccccc3OC)SC2)cc1OC1CCCC1
IC50 [3]: 35.9 µM (inactive)
